Experimental data reported in the CheMixHub ionic liquid set.
± gives the uncertainty stated by the source.

Assay: xn = mol fraction of the nth substance listed

CCCC[n+]1ccccc1.[Cl-] + CCCC[n+]1ccccc1.[Br-]
101 kPa
Settings | viscosity [mPa·s]
398.1 K, x1 = 0.084 | 33 ± 2.4
403.1 K, x1 = 0.084 | 27.4 ± 2.1
408.1 K, x1 = 0.389 | 23.9 ± 1.7
418.1 K, x1 = 0.169 | 16.9 ± 1.1
418.1 K, x1 = 0.389 | 17.4 ± 1.1
418.1 K, x1 = 0.689 | 18.6 ± 1.1
418.1 K, x1 = 0.892 | 19.4 ± 1.1
423.1 K, x1 = 0.084 | 14.37 ± 0.86
423.1 K, x1 = 0.892 | 16.89 ± 0.97
428.1 K, x1 = 0.785 | 14.42 ± 0.79
433.1 K, x1 = 0.292 | 11.45 ± 0.6
433.1 K, x1 = 0.892 | 13.16 ± 0.67
438.1 K, x1 = 0.169 | 10.08 ± 0.49
438.1 K, x1 = 0.469 | 10.85 ± 0.52
438.1 K, x1 = 0.892 | 11.77 ± 0.56

CCCC[n+]1ccn(C)c1.O=S(=O)([N-]S(=O)(=O)C(F)(F)F)C(F)(F)F + CCCCCCCCCO
Settings | viscosity [mPa·s]
298 K, 100 kPa, x1 = 1 | 49.7 ± 1.3

CN(C)C=O + CCCC[n+]1ccn(C)c1.F[B-](F)(F)F
Settings | viscosity [mPa·s]
298.15 K, 101.33 kPa, x1 = 1 | 0.8 ± 0.16
333.15 K, 100 kPa, x2 = 0 | 0.559 ± 0.007

CC#N + CC[n+]1ccn(C)c1C.F[B-](F)(F)F
101.3 kPa, x2 = 0
Settings | viscosity [mPa·s]
293.15 K | 0.361 ± 0.034
298.15 K | 0.346 ± 0.033
303.15 K | 0.332 ± 0.031
308.15 K | 0.32 ± 0.03
313.15 K | 0.309 ± 0.029
318.15 K | 0.298 ± 0.028
323.15 K | 0.288 ± 0.027
328.15 K | 0.279 ± 0.026
333.15 K | 0.271 ± 0.026

Cn1cc[nH+]c1.[Cl-] + [Cl][Al]([Cl])[Cl]
101 kPa
Settings | electrical conductivity, 303.15 K [S/m] | electrical conductivity, 313.15 K [S/m] | viscosity, 303.15 K [mPa·s] | viscosity, 313.15 K [mPa·s]
x2 = 0.643 | – | 0.782 ± 0.008 | – | 31.87 ± 0.44
x2 = 0.667 | 0.709 ± 0.007 | – | 32.79 ± 0.48 | –

CCCC[n+]1ccn(C)c1.O=S(=O)([N-]S(=O)(=O)C(F)(F)F)C(F)(F)F + CCCCCCCO
Settings | viscosity [mPa·s]
298 K, 100 kPa, x1 = 1 | 49.7 ± 1.3

CCCCCCCCCCCCCCCCCC[n+]1ccn(C)c1.O=S(=O)([N-]S(=O)(=O)C(F)(F)F)C(F)(F)F + CCCCCCCCCCCCCCCCn1cc[n+](C)c1.O=S(=O)([N-]S(=O)(=O)C(F)(F)F)C(F)(F)F
Settings | viscosity [mPa·s]
323 K, 101 kPa, x2 = 0.621 | 89.5 ± 2.1

CCCC[n+]1ccn(C)c1.O=S(=O)([N-]S(=O)(=O)C(F)(F)F)C(F)(F)F + CC(=O)[O-].CCCC[n+]1ccn(C)c1
101 kPa
Settings | electrical conductivity, 313.15 K [S/m] | viscosity, 298.15 K [mPa·s] | viscosity, 313.15 K [mPa·s] | viscosity, 353.15 K [mPa·s]
x1 = 1 | 0.683 ± 0.027 | – | 28.5 ± 2.9 | –
x2 = 0 | – | 50.3 ± 2.1 | – | 9.52 ± 0.4

CC(=O)c1ccccc1 + CCCC[n+]1ccn(C)c1.F[B-](F)(F)F
viscosity [mPa·s], 100 kPa
Settings | 293.15 K | 303.15 K | 313.15 K | 323.15 K | 333.15 K
x1 = 0.0513 | 79 ± 16 | 50 ± 10 | 30.5 ± 6.1 | 20.4 ± 4.1 | 12.9 ± 2.6
x1 = 0.1001 | 56 ± 11 | 38.6 ± 7.7 | 21.6 ± 4.3 | 15.4 ± 3.1 | 11.5 ± 2.3
x1 = 0.2046 | 43.6 ± 8.7 | 30.8 ± 6.2 | 19 ± 3.8 | 13.7 ± 2.7 | 10.3 ± 2.1
x1 = 0.306 | 42.4 ± 8.5 | 28.6 ± 5.7 | 16.9 ± 3.4 | 12.2 ± 2.4 | 9.2 ± 1.8
x1 = 0.3976 | 41.7 ± 8.3 | 25.9 ± 5.2 | 11.8 ± 2.4 | 9.7 ± 1.9 | 6.7 ± 1.4
x1 = 0.5064 | 34.4 ± 6.9 | 21.3 ± 4.3 | 10.8 ± 2.2 | 7.6 ± 1.5 | 6.2 ± 1.2
x1 = 0.6079 | 29.5 ± 5.9 | 16.9 ± 3.4 | 9.8 ± 2 | 6.5 ± 1.3 | 5.7 ± 1.1
x1 = 0.7065 | 26 ± 5.2 | 13.7 ± 2.7 | 8.3 ± 1.7 | 5.4 ± 1.1 | –
x1 = 0.8054 | 22.3 ± 4.5 | 11.7 ± 2.3 | 7.1 ± 1.4 | 4.79 ± 0.96 | –
x1 = 0.9026 | 11.8 ± 2.4 | 8 ± 1.6 | 5.7 ± 1.1 | 3.81 ± 0.76 | 3.23 ± 0.65
x1 = 0.9516 | 7 ± 1.4 | 5 ± 1 | 3.65 ± 0.73 | 2.8 ± 0.56 | 2.22 ± 0.44
x1 = 1 | 1.91 ± 0.38 | 1.65 ± 0.33 | 1.37 ± 0.27 | 1.17 ± 0.23 | 1.02 ± 0.2

CCCC[n+]1ccn(C)c1.F[P-](F)(F)(F)(F)F + CCC(C)=O
298.15 K, 101.3 kPa
Settings | viscosity [mPa·s]
x2 = 0.3016 | 43.3 ± 1.4
x2 = 0.4024 | 23.55 ± 0.66
x2 = 0.4485 | 18.18 ± 0.49
x2 = 0.6517 | 5.15 ± 0.13

CCCCCCO + CCCC[n+]1ccn(C)c1.O=S(=O)([N-]S(=O)(=O)C(F)(F)F)C(F)(F)F
298 K, 100 kPa
Settings | electrical conductivity [S/m] | viscosity [mPa·s]
x2 = 0 | – | 4.502 ± 0.07
x2 = 0.6 | 0.5605 ± 0.0056 | –
x2 = 0.7 | 0.491 ± 0.0049 | 26.59 ± 0.6
x2 = 0.8 | 0.4635 ± 0.0046 | –
x2 = 0.8006 | – | 32.43 ± 0.77
x2 = 0.899 | – | 40.3 ± 1
x2 = 0.9 | 0.427 ± 0.043 | –
